Experimental data from patent US20140088102A1, “(ALPHA-SUBSTITUTED CYCLOALKYLAMINO AND HETEROCYCLYLAMINO) PYRIMIDINYL AND 1,3,5-TRIAZINYL BENZIMIDAZOLES, PHARMACEUTICAL COMPOSITIONS THEREOF, AND THEIR USE IN TREATING PROLIFERATIVE DISEASES” (MEI PHARMA, INC., priority 2011, published 2014).

Assays:
Type in all cases: biochemical
p110α = molecular target: T1, p110α (Homo sapiens, UniProt P42336); test: Luciferase-based luminescence assay (Kinase GLO), PI3K alpha; conditions: 1.65 nM enzyme, 50 μM PIP2, 25 μM ATP, 1 hour
T1 construct: purchased Invitrogen Corp., Carlsbad, Calif., USA
Protocol: (§1) PI3K catalyzes the conversion of phosphatidylinositol-4,5-bisphosphate (PIP2) and ATP to phosphatidylinositol-3,4,5-trisphosphate (PIP3) and ADP. PI3K enzymatic activity was determined by measuring the amount of ATP consumed following the kinase reaction using a luciferase-based luminescence assay (Kinase GLO®, Promega Corp., Madison, Wis., USA) in a reaction buffer. The reaction buffer contained 50 mM HEPES, pH 7.5, 3 mM MgCl2, 1 mM EGTA, 100 mM NaCl, 0.03% CHAPS, and 2 mM DTT. Compounds for testing were dissolved and serially diluted in 100% DMSO (total of 10 concentrations), and then diluted 1:25 in the reaction buffer. PI3K enzyme solutions were prepared by diluting PI3K alpha (Invitrogen Corp., Carlsbad, Calif., USA) or PI3K delta (Millipore, Billerica, Mass., USA) in the reaction buffer to 4× the final assay concentration. The final concentrations of enzymes were 1.65 nM and 6.86 nM for PI3K alpha and PI3K delta, respectively. A substrate solution was prepared by mixing PIP2 and ATP in reaction buffer at 2× the final assay concentration. The final concentrations were 50 μM and 25 μM for PIP2 and ATP, respectively. To individual wells of white low volume 384-well assay plates were added 2.5 μl each of the compound and kinase mixtures, followed by shaking. The reactions were started by adding 5 μl of substrate mixture per well and shaking. The assay plates were covered and reactions were allowed to proceed for 1 hour (PI3K alpha) or 2 hours (PI3K delta), after which 10 μl of Kinase GLO® reagent was added. The plates were briefly centrifuged and incubated for 10 minutes, after which luminescence was measured using a FlexStation plate reader (Molecular Devices, Sunnyvale, Calif., USA). IC50 values were determined by curve fitting using Graphpad Prism software (Graphpad Software, La Jolla, Calif., USA).

p110δ = molecular target: T2, p110δ (Homo sapiens, UniProt O00329); test: Luciferase-based luminescence assay (Kinase GLO), PI3K delta; conditions: for IC50: 6.86 nM enzyme, 50 μM PIP2, 25 μM ATP, 2 hours; for α/δ ratio: ratio of IC50 against PI3Kα over IC50 against PI3Kδ
T2 construct: purchased Millipore, Billerica, Mass., USA
Protocol: as §1

p110γ = p110γ (Homo sapiens, UniProt P48736); test: Luciferase-based luminescence assay, p110γ
mTOR = mTOR (Homo sapiens, UniProt P42345); test: Luciferase-based luminescence assay, mTOR
p110β = p110β (Homo sapiens, UniProt P42338); test: Luciferase-based luminescence assay, p110β
Sequence of p110β (P42338 whole entry, species assumed): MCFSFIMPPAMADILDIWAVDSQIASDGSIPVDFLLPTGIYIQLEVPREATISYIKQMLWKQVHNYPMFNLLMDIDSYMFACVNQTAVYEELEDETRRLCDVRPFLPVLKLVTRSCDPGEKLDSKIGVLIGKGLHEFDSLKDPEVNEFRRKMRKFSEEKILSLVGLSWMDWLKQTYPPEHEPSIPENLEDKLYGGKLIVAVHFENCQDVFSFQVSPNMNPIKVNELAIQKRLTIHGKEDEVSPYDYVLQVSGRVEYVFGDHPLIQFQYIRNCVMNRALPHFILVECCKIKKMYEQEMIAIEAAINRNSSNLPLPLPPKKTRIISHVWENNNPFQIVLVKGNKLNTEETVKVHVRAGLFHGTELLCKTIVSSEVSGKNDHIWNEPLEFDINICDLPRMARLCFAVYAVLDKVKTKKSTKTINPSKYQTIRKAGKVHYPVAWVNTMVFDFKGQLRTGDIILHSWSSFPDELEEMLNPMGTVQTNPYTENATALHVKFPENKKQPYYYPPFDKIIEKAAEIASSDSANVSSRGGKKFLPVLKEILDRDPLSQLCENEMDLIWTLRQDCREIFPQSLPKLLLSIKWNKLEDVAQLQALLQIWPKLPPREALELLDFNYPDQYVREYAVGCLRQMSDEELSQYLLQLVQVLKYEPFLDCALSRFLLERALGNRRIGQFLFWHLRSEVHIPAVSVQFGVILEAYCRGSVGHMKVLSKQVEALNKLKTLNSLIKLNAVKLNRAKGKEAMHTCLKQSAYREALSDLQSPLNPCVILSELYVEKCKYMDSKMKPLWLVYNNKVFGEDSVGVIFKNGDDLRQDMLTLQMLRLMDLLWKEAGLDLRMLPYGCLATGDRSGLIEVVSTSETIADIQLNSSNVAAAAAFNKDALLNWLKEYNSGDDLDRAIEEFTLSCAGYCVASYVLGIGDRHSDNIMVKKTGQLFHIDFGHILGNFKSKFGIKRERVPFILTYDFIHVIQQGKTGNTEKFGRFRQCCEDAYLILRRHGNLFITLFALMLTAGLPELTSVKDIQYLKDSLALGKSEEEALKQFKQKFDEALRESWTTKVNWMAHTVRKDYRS
Sequence of p110β (P27986 whole entry partner, species assumed): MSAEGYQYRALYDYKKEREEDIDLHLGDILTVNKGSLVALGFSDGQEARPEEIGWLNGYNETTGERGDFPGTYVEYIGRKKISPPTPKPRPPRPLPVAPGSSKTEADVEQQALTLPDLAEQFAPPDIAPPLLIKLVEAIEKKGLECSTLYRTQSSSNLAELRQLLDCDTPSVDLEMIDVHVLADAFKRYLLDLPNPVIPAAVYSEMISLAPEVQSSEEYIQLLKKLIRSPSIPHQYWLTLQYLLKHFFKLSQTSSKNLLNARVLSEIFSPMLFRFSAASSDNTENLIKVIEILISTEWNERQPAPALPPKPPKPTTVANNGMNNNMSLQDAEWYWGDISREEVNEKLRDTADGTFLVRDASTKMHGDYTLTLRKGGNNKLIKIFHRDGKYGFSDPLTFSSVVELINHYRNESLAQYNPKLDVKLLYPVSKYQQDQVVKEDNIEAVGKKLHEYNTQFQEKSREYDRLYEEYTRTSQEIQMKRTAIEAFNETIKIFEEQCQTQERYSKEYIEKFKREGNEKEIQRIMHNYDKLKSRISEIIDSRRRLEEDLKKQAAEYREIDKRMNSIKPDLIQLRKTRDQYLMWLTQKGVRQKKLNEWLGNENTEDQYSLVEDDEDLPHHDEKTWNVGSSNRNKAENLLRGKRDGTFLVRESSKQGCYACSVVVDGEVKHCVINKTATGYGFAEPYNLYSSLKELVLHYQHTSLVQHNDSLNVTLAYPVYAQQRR

Sequence of p110γ (P48736 whole entry, species assumed): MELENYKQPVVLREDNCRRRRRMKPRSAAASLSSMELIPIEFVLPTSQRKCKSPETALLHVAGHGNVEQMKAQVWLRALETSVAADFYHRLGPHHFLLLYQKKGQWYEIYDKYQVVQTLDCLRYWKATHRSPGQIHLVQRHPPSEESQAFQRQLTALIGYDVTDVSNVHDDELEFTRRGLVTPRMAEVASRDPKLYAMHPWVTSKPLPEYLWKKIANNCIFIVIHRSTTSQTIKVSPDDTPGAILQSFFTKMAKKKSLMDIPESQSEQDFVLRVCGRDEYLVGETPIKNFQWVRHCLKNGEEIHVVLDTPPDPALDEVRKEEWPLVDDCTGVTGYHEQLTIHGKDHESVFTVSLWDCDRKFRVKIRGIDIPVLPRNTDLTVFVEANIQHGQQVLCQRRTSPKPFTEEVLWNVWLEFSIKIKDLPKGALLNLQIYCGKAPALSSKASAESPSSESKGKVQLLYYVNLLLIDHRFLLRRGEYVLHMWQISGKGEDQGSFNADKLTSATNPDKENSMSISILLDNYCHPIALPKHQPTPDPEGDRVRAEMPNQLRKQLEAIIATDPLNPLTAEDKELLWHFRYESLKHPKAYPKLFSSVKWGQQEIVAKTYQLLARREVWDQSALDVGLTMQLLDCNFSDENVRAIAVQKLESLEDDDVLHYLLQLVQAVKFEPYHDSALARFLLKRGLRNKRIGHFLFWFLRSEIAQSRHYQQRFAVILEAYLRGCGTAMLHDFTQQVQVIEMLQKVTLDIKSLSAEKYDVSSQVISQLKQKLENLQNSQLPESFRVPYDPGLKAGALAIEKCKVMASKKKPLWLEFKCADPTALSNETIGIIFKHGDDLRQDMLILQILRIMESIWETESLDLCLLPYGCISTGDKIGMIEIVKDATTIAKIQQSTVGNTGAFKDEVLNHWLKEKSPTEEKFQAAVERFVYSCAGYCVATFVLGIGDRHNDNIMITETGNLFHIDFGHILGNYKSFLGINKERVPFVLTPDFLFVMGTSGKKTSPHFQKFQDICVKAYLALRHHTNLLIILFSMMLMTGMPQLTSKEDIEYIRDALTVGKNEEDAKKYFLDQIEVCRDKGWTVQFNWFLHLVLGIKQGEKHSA
T1 sequence (P42336 whole entry): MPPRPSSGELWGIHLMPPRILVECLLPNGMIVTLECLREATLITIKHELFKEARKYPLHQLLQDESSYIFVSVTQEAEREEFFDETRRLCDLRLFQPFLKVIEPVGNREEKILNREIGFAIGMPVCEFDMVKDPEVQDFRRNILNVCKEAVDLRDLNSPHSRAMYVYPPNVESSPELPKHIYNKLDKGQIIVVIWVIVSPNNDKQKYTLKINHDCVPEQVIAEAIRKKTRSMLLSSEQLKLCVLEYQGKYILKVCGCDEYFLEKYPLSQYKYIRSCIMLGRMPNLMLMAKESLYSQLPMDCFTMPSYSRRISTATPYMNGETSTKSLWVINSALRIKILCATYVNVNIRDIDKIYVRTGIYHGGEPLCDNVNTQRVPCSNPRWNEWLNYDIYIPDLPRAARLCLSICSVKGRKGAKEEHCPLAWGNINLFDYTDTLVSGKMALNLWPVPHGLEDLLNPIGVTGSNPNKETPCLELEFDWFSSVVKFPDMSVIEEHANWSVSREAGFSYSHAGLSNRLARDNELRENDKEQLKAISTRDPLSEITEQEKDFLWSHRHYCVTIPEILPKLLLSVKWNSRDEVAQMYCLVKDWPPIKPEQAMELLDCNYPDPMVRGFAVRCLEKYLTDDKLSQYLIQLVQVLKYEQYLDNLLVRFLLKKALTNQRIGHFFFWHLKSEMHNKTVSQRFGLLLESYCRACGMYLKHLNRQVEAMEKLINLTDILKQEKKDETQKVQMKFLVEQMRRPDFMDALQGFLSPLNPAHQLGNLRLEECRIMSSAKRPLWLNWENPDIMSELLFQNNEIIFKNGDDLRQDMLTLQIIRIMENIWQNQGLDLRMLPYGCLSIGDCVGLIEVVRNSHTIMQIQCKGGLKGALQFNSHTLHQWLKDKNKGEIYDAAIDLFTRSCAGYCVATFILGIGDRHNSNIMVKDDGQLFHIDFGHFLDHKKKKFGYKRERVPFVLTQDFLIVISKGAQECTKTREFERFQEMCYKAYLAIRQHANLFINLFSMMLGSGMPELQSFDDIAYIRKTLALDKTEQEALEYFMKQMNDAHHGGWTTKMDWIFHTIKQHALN
T1 sequence (P27986 whole entry partner): as the sequence (P27986 whole entry partner, species assumed) above
T2 sequence (O00329 whole entry): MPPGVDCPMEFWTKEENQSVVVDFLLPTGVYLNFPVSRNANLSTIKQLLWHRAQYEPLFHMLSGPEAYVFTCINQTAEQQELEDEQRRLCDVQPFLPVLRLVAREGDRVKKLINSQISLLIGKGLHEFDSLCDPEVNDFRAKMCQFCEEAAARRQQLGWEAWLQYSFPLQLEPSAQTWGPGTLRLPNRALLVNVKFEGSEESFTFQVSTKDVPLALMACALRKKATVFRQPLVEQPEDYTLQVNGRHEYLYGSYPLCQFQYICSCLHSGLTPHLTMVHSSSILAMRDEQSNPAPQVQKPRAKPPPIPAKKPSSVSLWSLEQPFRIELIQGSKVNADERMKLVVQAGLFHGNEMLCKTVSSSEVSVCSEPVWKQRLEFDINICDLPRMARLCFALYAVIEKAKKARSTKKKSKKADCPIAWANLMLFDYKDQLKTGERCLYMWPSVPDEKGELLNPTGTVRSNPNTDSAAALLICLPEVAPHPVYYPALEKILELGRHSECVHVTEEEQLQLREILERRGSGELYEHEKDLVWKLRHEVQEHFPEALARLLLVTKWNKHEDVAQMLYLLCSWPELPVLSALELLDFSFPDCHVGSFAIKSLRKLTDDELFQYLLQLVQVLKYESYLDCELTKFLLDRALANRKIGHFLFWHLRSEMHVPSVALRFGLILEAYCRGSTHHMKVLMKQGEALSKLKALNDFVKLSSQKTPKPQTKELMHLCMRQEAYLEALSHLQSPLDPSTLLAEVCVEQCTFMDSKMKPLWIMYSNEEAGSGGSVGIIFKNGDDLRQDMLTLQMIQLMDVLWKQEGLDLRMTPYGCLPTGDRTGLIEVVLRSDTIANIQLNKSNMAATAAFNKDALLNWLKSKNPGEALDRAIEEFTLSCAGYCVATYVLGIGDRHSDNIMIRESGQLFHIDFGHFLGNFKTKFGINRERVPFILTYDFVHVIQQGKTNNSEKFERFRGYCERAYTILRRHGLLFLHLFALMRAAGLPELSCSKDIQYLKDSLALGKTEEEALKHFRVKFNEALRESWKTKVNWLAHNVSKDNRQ
T2 sequence (P27986 whole entry partner): as the sequence (P27986 whole entry partner, species assumed) above

## FC(F)c1nc2ccccc2n1-c1nc(NC2(c3ccccc3)CC2)nc(N2CCOCC2)n1 [Compound A1, 4-(2-(difluoromethyl)-1H-benzo[d]imidazol-1-yl)-6-morpholino-N-(1-phenylcyclopropyl)-1,3,5-triazin-2-amine]
p110α
  IC50: 200 to 500 nM
p110δ
  IC50: ≤ 100 nM
  α/δ ratio: B′ (B′ represents a ratio of no less than 4 but no greater than 8)

## Cc1ccccc1CC1(Nc2nc(N3CCOCC3)nc(-n3c(C(F)F)nc4ccccc43)n2)CC1 [Compound A8, 4-(2-(difluoromethyl)-1H-benzo[d]imidazol-1-yl)-N-(1-(2-methylbenzyl)cyclopropyl)-6-morpholino-1,3,5-triazin-2-amine]
p110γ
  IC50: > 500 nM
p110α
  IC50: > 500 nM
mTOR
  IC50: > 500 nM
p110δ
  IC50: 100 to 200 nM
  α/δ ratio: B′ (B′ represents a ratio of no less than 4 but no greater than 8)
p110β
  IC50: > 500 nM

## FC(F)c1nc2ccccc2n1-c1nc(NCc2ccccc2)nc(N2CCOCC2)n1 [Ref. 1, N-benzyl-4-(2-(difluoromethyl)-1H-benzo[d]imidazol-1-yl)-6-morpholino-1,3,5-triazin-2-amine, reference compound]
p110α
  IC50: 100 to 200 nM
p110δ
  IC50: 100 to 200 nM
  α/δ ratio: D′ (D′ represents a ratio of no greater than 2)

## FC(F)c1nc2ccccc2n1-c1nc(NC2(c3ccccc3)CCCC2)nc(N2CCOCC2)n1 [Compound A3, 4-(2-(difluoromethyl)-1H-benzo[d]imidazol-1-yl)-6-morpholino-N-(1-phenylcyclopentyl)-1,3,5-triazin-2-amine]
p110α
  IC50: > 500 nM
p110δ
  IC50: > 500 nM
  α/δ ratio: A′ (A′ represents a ratio of greater than 8)

## FC(F)c1nc2ccccc2n1-c1nc(NC2(Cc3ccccc3Cl)CC2)nc(N2CCOCC2)n1 [Compound A10, N-(1-(2-chlorobenzyl)cyclopropyl)-4-(2-(difluoromethyl)-1H-benzo[d]imidazol-1-yl)-6-morpholino-1,3,5-triazin-2-amine]
p110γ
  IC50: > 500 nM
p110α
  IC50: > 500 nM
mTOR
  IC50: > 500 nM
p110δ
  IC50: 200 to 500 nM
  α/δ ratio: A′ (A′ represents a ratio of greater than 8)
p110β
  IC50: > 500 nM

## FC(F)c1nc2ccccc2n1-c1nc(NC2(Cc3ccccc3)CC2)nc(N2CCOCC2)n1 [Compound A5, N-(1-benzylcyclopropyl)-4-(2-(difluoromethyl)-1H-benzo[d]imidazol-1-yl)-6-morpholino-1,3,5-triazin-2-amine]
p110γ
  IC50: > 500 nM
p110α
  IC50: > 500 nM
mTOR
  IC50: > 500 nM
p110δ
  IC50: ≤ 100 nM
  α/δ ratio: A′ (A′ represents a ratio of greater than 8)
p110β
  IC50: > 500 nM

## FC(F)c1nc2ccccc2n1-c1nc(NC2(Cc3ccccc3)CCC2)nc(N2CCOCC2)n1 [Compound A11, 4-(2-(difluoromethyl)-1H-benzo[d]imidazol-1-yl)-N-(1-benzylcyclobutyl)-6-morpholino-1,3,5-triazin-2-amine]
p110γ
  IC50: 200 to 500 nM
p110α
  IC50: > 500 nM
mTOR
  IC50: > 500 nM
p110δ
  IC50: ≤ 100 nM
  α/δ ratio: A′ (A′ represents a ratio of greater than 8)
p110β
  IC50: ≤ 100 nM

## FC(F)c1nc2ccccc2n1-c1nc(NC2(c3ccccc3)CCCCC2)nc(N2CCOCC2)n1 [Compound A4, 4-(2-(difluoromethyl)-1H-benzo[d]imidazol-1-yl)-6-morpholino-N-(1-phenylcyclohexyl)-1,3,5-triazin-2-amine]
p110α
  IC50: > 500 nM
p110δ
  IC50: 200 to 500 nM
  α/δ ratio: A′ (A′ represents a ratio of greater than 8)

## FC(F)c1nc2ccccc2n1-c1nc(NC2(Cc3ccccc3)CCCC2)nc(N2CCOCC2)n1 [Compound A7, N-(1-benzylcyclopentyl)-4-(2-(difluoromethyl)-1H-benzo[d]imidazol-1-yl)-6-morpholino-1,3,5-triazin-2-amine]
p110γ
  IC50: 200 to 500 nM
p110α
  IC50: > 500 nM
mTOR
  IC50: > 500 nM
p110δ
  IC50: ≤ 100 nM
  α/δ ratio: A′ (A′ represents a ratio of greater than 8)
p110β
  IC50: 100 to 200 nM

## FC(F)c1nc2ccccc2n1-c1nc(NC2(Cc3ccc(Br)cc3)CCCCC2)nc(N2CCOCC2)n1 [Compound A6, N-(1-(4-bromobenzyl)cyclohexyl)-4-(2-(difluoromethyl)-1H-benzo[d]imidazol-1-yl)-6-morpholino-1,3,5-triazin-2-amine]
p110γ
  IC50: > 500 nM
p110α
  IC50: > 500 nM
mTOR
  IC50: > 500 nM
p110δ
  IC50: > 500 nM
  α/δ ratio: B′ (B′ represents a ratio of no less than 4 but no greater than 8)
p110β
  IC50: > 500 nM
